From ChEMBL document CHEMBL3039007, “Structure-based identification of OATP1B1/3 inhibitors” (Mol Pharmacol, 2013) come the findings set out here.

Where “and” joins values, the source holds several entries; their conditions need not be identical. Equal entries are not always repeated.

In data set [1] the target is T1, Solute carrier organic anion transporter family member 1B1 (Homo sapiens, UniProt Q9Y6L6).
T1 sequence (Q9Y6L6 whole entry): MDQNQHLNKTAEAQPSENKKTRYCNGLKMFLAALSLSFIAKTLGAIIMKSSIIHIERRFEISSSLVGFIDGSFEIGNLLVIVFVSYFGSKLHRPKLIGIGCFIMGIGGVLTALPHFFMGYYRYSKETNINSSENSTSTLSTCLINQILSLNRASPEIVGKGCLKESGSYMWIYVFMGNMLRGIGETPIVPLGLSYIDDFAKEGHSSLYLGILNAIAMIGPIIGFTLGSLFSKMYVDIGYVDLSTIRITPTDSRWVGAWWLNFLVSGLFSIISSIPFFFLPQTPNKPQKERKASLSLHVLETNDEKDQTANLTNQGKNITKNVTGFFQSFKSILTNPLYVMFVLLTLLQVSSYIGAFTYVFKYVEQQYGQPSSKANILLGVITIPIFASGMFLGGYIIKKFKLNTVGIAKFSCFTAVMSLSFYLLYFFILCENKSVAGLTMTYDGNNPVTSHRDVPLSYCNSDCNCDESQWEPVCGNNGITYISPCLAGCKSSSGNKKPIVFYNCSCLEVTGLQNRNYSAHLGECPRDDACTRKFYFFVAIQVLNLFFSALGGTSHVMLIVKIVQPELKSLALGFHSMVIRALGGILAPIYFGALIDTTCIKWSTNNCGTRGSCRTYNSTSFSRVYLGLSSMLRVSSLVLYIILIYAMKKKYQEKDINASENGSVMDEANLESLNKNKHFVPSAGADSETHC
As to conditions: chinese hamster, cho, 10 µM.

For data set [2], the target named is T2, Solute carrier organic anion transporter family member 1B3 (Homo sapiens, UniProt Q9NPD5).
T2 sequence (Q9NPD5 whole entry): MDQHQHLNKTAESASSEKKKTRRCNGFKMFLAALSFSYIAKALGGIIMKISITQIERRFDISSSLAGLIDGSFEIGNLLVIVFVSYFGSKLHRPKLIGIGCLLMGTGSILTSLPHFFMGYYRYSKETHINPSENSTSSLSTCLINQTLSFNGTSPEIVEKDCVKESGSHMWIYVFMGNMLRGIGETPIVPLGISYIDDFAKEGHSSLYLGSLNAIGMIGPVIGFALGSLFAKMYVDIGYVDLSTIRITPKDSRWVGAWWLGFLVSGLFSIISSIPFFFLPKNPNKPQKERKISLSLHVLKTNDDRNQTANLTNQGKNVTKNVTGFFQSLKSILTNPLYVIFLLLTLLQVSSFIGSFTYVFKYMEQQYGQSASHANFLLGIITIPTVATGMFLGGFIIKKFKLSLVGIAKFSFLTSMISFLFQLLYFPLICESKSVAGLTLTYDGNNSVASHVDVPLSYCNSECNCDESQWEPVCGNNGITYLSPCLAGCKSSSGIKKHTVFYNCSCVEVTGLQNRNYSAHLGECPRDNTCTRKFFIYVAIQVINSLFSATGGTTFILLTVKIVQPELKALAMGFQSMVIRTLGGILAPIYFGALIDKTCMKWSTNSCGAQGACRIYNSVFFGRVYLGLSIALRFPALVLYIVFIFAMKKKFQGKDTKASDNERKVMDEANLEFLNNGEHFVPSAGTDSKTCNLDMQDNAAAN

Data set [3] concerns the target T1, Solute carrier organic anion transporter family member 1B1.
Data set [4] addresses T2, Solute carrier organic anion transporter family member 1B3. As to conditions: chinese hamster, cho, 10 µM.
Data set [5] concerns the target T1, Solute carrier organic anion transporter family member 1B1. The source holds these as a separate data set.
For data set [6], the target named is T2, Solute carrier organic anion transporter family member 1B3. The source holds these as a separate data set.

The term residual activity denotes the activity still measured, relative to the control. Read a low residual activity as a large loss of activity. Broadly, the IC50 is the concentration that gives 50% inhibition. Higher therefore signals lower potency. In general, Ki refers to the dissociation constant of the complex between target and ligand, obtained from inhibition or displacement. With `CCC(=O)O[C@H]1[C@H](O[C@@H]2[C@@H](C)[C@H](O[C@H]3C[C@@](C)(OC)[C@@H](O)[C@H](C)O3)[C@@H](C)C(=O)O[C@H](CC)[C@@](C)(O)[C@H](O)[C@@H](C)C(=O)[C@H](C)C[C@@]2(C)O)O[C@H](C)C[C@@H]1N(C)C.CCCCCCCCCCCCOS(=O)(=O)O` [ERYTHROMYCIN ESTOLATE], the figures for the residual activity in data set [1] and in data set [4] were 6.903% and 7.433%, respectively. Moreover, the IC50 in data set [2] was 3.09 µM; in data set [3], 4.37 µM. Besides, the Ki is 2.41 µM in data set [5] and 2.35 µM in data set [6].

`CC(=O)OC/C=C(C)/C=C/C=C(C)/C=C/C1=C(C)CCCC1(C)C` [GILRETINOL ACETATE]: the figures for the residual activity in data set [1] and in data set [4] were 19.44% and 23.53%, respectively. Moreover, the results for the IC50 in data set [2] and in data set [3] were 5.01 µM and 2.24 µM, respectively. In addition, the values for the Ki in data set [5] and in data set [6] were 1.22 µM and 3.89 µM, respectively.

As to `C=CC1=C(C)/C(=C/c2[nH]c(Cc3[nH]c(/C=C4\NC(=O)C(C)=C4C=C)c(C)c3CCC(=O)O)c(CCC(=O)O)c2C)NC1=O` [BILIRUBIN], the values for the residual activity in data set [1] and in data set [4] were 15.29% and 32.05%, respectively. In addition, the values for the IC50 in data set [2] and in data set [3] were 3.39 µM and 1.32 µM, respectively. In addition, the figures for the Ki in data set [5] and in data set [6] were 0.72 µM and 2.63 µM, respectively.

For `CC[C@H]1OC(=O)[C@H](C)C(=O)[C@H](C)[C@@H](O[C@@H]2O[C@H](C)C[C@H](N(C)C)[C@H]2O)[C@](C)(OC)C[C@@H](C)C(=O)[C@H](C)[C@H]2N(CCCCn3cnc(-c4cccnc4)c3)C(=O)O[C@]12C` [TELITHROMYCIN], the residual activity in data set [1] is on record as 62.01%; in data set [4] it was 60.1%. In addition, the IC50 in data set [2] is 5.89 µM; in data set [3], 3.47 µM.

As for `CC[C@H]1OC(=O)[C@H](C)[C@@H](O[C@H]2C[C@@](C)(OC)[C@@H](O)[C@H](C)O2)[C@H](C)[C@@H](O[C@@H]2O[C@H](C)C[C@H](N(C)C)[C@H]2O)[C@](C)(OC)C[C@@H](C)C(=O)[C@H](C)[C@@H](O)[C@]1(C)O` [CLARITHROMYCIN], the residual activity in data set [1] worked out at 56.72%; in data set [4], 80.47%. For the same molecule, the IC50 in data set [2] is 3.31 µM; in data set [3], 3.09 µM.

For the molecule `CC(=O)O[C@@H]1C[C@H]2C(C)(C)[C@@H](O)CC[C@]2(C)[C@H]2CC[C@]3(C)C(=CC(=O)O[C@H]3c3ccoc3)[C@@]21C`, the residual activity in data set [1] stood at 31.46%; in data set [4], 25.89%. In addition, the Ki is 0.93 µM and 1.49 µM in data set [5]; 2.5 µM and 2.39 µM in data set [6].

Regarding `Cc1ccc(C)c(OCCCC(C)(C)C(=O)O)c1` [GEMFIBROZIL], the values for the residual activity in data set [1] and in data set [4] were 56.21% and 71.16%, respectively. The IC50 in data set [2] is 7.08 µM; in data set [3], 4.07 µM.

`CC1(C)C(=O)[C@@H]2O[C@@H]2[C@]2(C)[C@H]3CC[C@@]4(C)[C@H](c5ccoc5)OC(=O)[C@H]5O[C@]54[C@]3(C)[C@H](O)C[C@@H]12`: the residual activity in data set [1] is reported as 12.73%; in data set [4], 21.3%. For the same molecule, the IC50 in data set [2] was 2.95 µM; in data set [3], 1.58 µM.

Regarding `C=C1[C@@H]2CC[C@@]3(C)[C@H](c4ccoc4)OC(=O)C[C@]13O[C@H]1C[C@H](O)C(C)(C)[C@H](CC(=O)OC)[C@]12C`, the residual activity is 16% in data set [1] and 17.5% in data set [4]. The Ki in data set [5] was determined as 0.68 µM; in data set [6] it was 3.06 µM.

In the case of `CC(=O)O[C@@H]1C[C@H]2C(C)(C)[C@@H](O)CC[C@]2(C)[C@H]2CC[C@@]3(C)[C@H](c4ccoc4)OC(=O)[C@H]4O[C@]43[C@@]21C` [beta-DIHYDROGEDUNOL], the residual activity in data set [1] worked out at 20.54%; in data set [4], 23.84%. Also, the results for the IC50 in data set [2] and in data set [3] were 3.24 µM and 1.7 µM, respectively.

Regarding `CCCCCC[C@H]1C(=O)O[C@H](C)[C@H](NC(=O)c2cccc(NC=O)c2O)C(=O)O[C@@H](C)[C@@H]1OC(=O)CC(C)C` [ANTIMYCIN A], the residual activity in data set [1] is recorded as 31.93%; in data set [4] it was 28.62%. In addition, the Ki in data set [5] is 2.2 µM; in data set [6] it was 3.82 µM.

In the case of `CC(=O)O[C@@H]1CC2C(C)(C)[C@H](O)C[C@H](O)[C@@]2(C)C2CC[C@]3(C)C(=CC(=O)O[C@@H]3c3ccoc3)[C@]21C` (some centres not stated) [1,3-DIDEACETYLDEOXYKHIVORIN], the residual activity in data set [1] turned out to be 31.1%; in data set [4], 50.83%. Further, the Ki in data set [5] is 2.96 µM; in data set [6] it was 6.59 µM.

Turning to `Cc1cc2c(C(C)C)c(O)c(O)c(C=O)c2c(O)c1-c1c(C)cc2c(C(C)C)c(O)c(O)c(C=O)c2c1O` [GOSSYPOL], the residual activity in data set [1] was 24.45% and 68.48%. Moreover, the IC50 in data set [2] was 4.57 µM; in data set [3] it was 3.24 µM. Further, the Ki in data set [5] amounted to 1.78 µM; in data set [6], 3.47 µM.

Regarding `N[C@@H](C(=O)O)[C@@H](O)[C@H](O)[C@H](O)CO` [GLUCOSAMINIC ACID], the residual activity in data set [1] was found to be 63.53%; in data set [4] it was 25.61%. In data set [3], this molecule gave an IC50 of 11.7 µM.

Consider `CC(=O)O[C@H]1CC[C@]2(C)[C@H]3C(=O)C=C4[C@@H]5[C@@H](C)[C@H](C)CC[C@]5(C(=O)O)CC[C@@]4(C)[C@]3(C)CC[C@H]2C1(C)C` [11-OXOURSOLIC ACID ACETATE], for which the residual activity is recorded as 19.79% in data set [1] and 5.189% in data set [4]. Also, the IC50 in data set [2] is 11.5 µM; in data set [3], 11.2 µM.

As to `CC(=O)O[C@H]1CC[C@]2(C)C(C[C@@H](OC(C)=O)[C@]3(C)C4=CC(=O)O[C@H](c5ccoc5)[C@@]4(C)CCC23)C1(C)C` (stereo partly drawn) [3-DEOXO-3beta-ACETOXYDEOXYDIHYDROGEDUNIN], the residual activity came out at 14.97% in data set [1] and 20.65% in data set [4]. In addition, the Ki in data set [5] was found to be 0.41 µM; in data set [6], 2.67 µM.

In the case of `CC[C@H]1/C=C/C=C/C[C@@H](C)[C@H](O)[C@@](C)(O)C(=O)[C@@H](C)[C@H](O)[C@@H](C)C(=O)[C@@H](C)[C@H](O)[C@@H](C)/C=C/C(=O)O[C@@H]2[C@H](C)[C@H](CC1)O[C@]1(CC[C@H](C)[C@H](C[C@@H](C)O)O1)[C@H]2C` [OLIGOMYCIN], the residual activity in data set [1] stood at 11.28%; in data set [4], 3.002%. Further, the Ki came to 0.25 µM in data set [5] and 0.44 µM in data set [6].

As to `CC[C@@H](C(=O)[C@@H](C)[C@@H](O)[C@H](C)[C@@H]1O[C@@H]([C@@H](CC)C(=O)[O-])CC[C@@H]1C)[C@H]1O[C@]2(C=C[C@@H](O)[C@]3(CC[C@@](C)([C@H]4CC[C@](O)(CC)[C@H](C)O4)O3)O2)[C@H](C)C[C@@H]1C.[Na+]` [SALINOMYCIN SODIUM], the residual activity in data set [1] is 21.72%; in data set [4], 16.99%. Further, the values for the Ki in data set [5] and in data set [6] were 2.03 µM and 3.31 µM, respectively.

As to `CCCCCN(CCCCC)C(=O)C(CCC(=O)[O-])NC(=O)c1ccc(Cl)c(Cl)c1.[Na+]` (configuration not stated) [LORGLUMIDE SODIUM], the results for the residual activity in data set [1] and in data set [4] were 16.54% and 32.85%, respectively. The Ki in data set [5] stood at 2.01 µM; in data set [6] it was 2.71 µM.
